Measurements reported in patent publication US5817800A, “Inhibitors of β-glucuronidase and their use in the treatment of carcinamatosis and inflammation” (Hoechst Aktiengesellschaft, priority 1996, dated 1998).
Structures can show the parent of a compound that is named as a salt.

Biological target: T1, human β-glucuronidase (Homo sapiens, UniProt P08236)
T1 sequence (P08236 23-651): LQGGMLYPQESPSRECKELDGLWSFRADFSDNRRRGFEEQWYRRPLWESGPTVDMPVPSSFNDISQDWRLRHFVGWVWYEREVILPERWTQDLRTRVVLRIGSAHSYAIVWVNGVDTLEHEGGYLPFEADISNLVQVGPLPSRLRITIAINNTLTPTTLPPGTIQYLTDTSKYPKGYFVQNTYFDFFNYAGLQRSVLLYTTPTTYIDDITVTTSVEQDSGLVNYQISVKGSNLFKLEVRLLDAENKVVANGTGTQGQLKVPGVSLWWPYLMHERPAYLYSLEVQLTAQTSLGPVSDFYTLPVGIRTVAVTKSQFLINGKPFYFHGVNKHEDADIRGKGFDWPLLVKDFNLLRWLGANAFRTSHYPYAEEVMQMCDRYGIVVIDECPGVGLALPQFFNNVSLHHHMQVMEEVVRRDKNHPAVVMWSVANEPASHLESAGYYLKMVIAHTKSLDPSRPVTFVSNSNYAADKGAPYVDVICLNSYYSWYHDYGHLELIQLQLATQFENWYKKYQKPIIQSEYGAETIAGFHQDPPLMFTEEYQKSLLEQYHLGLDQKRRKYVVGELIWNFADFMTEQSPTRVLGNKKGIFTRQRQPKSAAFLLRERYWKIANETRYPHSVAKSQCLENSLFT
Assay: Inhibition of human β-glucuronidase (4-methylumbelliferyl-β-D-glucuronide substrate, fluorescence)
Assay type: biochemical
Conditions: substrate 4-methylumbelliferyl-β-D-glucuronide; 200 mM sodium acetate, 0.1 mg/ml BSA, pH 5; 10 min, 37° C.
Method: The inhibition of human β-glucuronidase was determined using 4-methylumbelliferyl-β-D-glucuronide as a substrate. The test mixture contained 75 μl of 2.5 mM 4-methylumbelliferyl-β-D-glucuronide, 25 μl of enzyme (0.6 μg/ml) and 10 μl of the compound of the formula I in a concentration range from 0.0001 to 100 mM, all in 200 mM sodium acetate buffer and 0.1 mg/ml bovine serum albumin (BSA), pH 5. After a 10-minute incubation at 37° C., the mixture was stopped with 1.5 ml of 0.2 M glycine/0.2% SDS, pH 11.7. The methylumbelliferone released by the enzyme was measured in a fluorescence photometer at 360 nm excitation and 450 nm emission wavelength.
The IC50 -values were calculated from the inhibitor dilution series using the software program GraFit 2.0 (Erithacus Software Ltd.).

SMILES | IC50
O=C(Nc1ccccc1)O/N=C1\O[C@H](C(=O)O)[C@@H](O)[C@H](O)[C@H]1O [Example 1, (Z)-O-(D-Glucopyranuronosylidene)amino N-phenylcarbamate (sodium salt)] | 0.0006 mM
O=C(Nc1ccccc1)O/N=C1\O[C@H](P(=O)(O)O)[C@@H](O)[C@H](O)[C@H]1O [Example 2, Sodium (5R,Z)-O-(5-C-phosphonato-D-xylopyranosylidene) amino N-phenylcarbamate] | 11 mM
